The text below walks through data of ChEMBL document CHEMBL1155333, “Amine substituted N-(1H-benzimidazol-2ylmethyl)-5,6,7,8-tetrahydro-8-quinolinamines as CXCR4 antagonists with potent activity against HIV-1” (Bioorg Med Chem Lett, 2009).

Calls of active or inactive are those of the source. The rule behind the calls is not given here.

The target of data set [1] is C-X-C chemokine receptor type 4 (Homo sapiens) (UniProt P61073). The data set can be described thus: Antagonist activity at CXCR4 by noncompetitive binding assay.
Chain of C-X-C chemokine receptor type 4 (Homo sapiens) (P61073 whole entry): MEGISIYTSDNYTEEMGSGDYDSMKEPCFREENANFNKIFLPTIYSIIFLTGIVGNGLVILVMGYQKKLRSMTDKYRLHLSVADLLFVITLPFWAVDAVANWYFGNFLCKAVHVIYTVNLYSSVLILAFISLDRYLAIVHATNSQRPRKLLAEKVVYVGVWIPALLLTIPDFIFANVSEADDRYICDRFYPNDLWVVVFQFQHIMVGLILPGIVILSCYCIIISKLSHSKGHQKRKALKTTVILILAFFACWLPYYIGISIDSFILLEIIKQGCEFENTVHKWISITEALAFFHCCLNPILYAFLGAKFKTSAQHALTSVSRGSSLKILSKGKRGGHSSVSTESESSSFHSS
Data set [2] in a line: Cytotoxicity against human HOS cells. Type of data set: cell-based.
Data set [3] relates to Human immunodeficiency virus 1. The data set is described as follows: Antiviral activity against HIV1 3B infected in human HOS cells. It counts as functional, organism-based. As to conditions: Human immunodeficiency virus 1, 3B.
For data set [4], the system named is Human immunodeficiency virus 1. The data set can be described thus: Ratio of AMD070 IC50 to compound IC50 for HIV1 3B infected in human HOS cells. It counts as functional.

Regarding `CN(Cc1nc2cccc(CN)c2[nH]1)C1CCCc2cccnc21` (stereo not given), the result in data set [1] was Active. Further, the CC50 (in general, the concentration that lowers cell viability or growth by half) in data set [2] was > 20 µM. The IC50 (commonly the concentration that gives 50% inhibition) in data set [3] was 1300 nM.

As for `CN(Cc1nc2ccccc2[nH]1)C1CCCc2cccnc21` (stereo not given), the result in data set [1] was Active. The half-maximal cytotoxic concentration (CC50) in data set [2] was found to be 5.3 µM. For the same compound, half-maximal inhibition in data set [3] (IC50) required 1350 nM.

In the case of `CN(Cc1nc2cccc(C(=O)NCCCN)c2[nH]1)C1CCCc2cccnc21` (stereo not given), the result in data set [1] was Active. Moreover, the CC50 in data set [2] was > 20 µM. The compound also had an IC50 in data set [3] of 134 nM.

As for `CN(Cc1nc2cccc(N3CCN(C(=O)OC(C)(C)C)CC3)c2[nH]1)C1CCCc2cccnc21` (stereo not given), the outcome in data set [1] was Active. Also, the CC50 in data set [2] is > 10 µM. In data set [3], the IC50 turned out to be 271 nM.

Regarding `CN(Cc1nc2c(N3CCNCC3)cccc2[nH]1)C1CCCc2cccnc21` (stereo not given), in data set [2], the 50% cytotoxic concentration (CC50) was > 20 µM.

As for `CN(Cc1nc2cccc(C(=O)N3CCNCC3)c2[nH]1)C1CCCc2cccnc21` (stereo not given), in data set [1], the outcome was Active. In data set [2], the CC50 is > 20 µM. Further, the IC50 in data set [3] was 46 nM.

With `CN1CCN(C(=O)c2cccc3[nH]c(CN(C)C4CCCc5cccnc54)nc23)CC1` (stereo not given), the CC50 in data set [2] is > 10 µM.

In the case of `CN(Cc1nc2c(CCCN)cccc2[nH]1)C1CCCc2cccnc21` (stereo not given), in data set [2], the CC50 amounted to 10 µM.

As to `CN1CCN(c2cccc3nc(CN(C)C4CCCc5cccnc54)[nH]c23)CC1` (racemic), the result in data set [1] was Active. Also, in data set [4], the “Ratio IC50” value is listed as 10. Besides, the CC50 in data set [2] turned out to be 14 µM. Further, in data set [3], it took 2 nM to reach half-maximal inhibition (IC50).

As for `CN(Cc1nc2cccc(C(=O)NCCc3cnc[nH]3)c2[nH]1)C1CCCc2cccnc21` (stereo not given), the result in data set [1] was Active. Further, the CC50 in data set [2] was > 10 µM. The compound further registered an IC50 in data set [3] of 19 nM.

As for `CN(Cc1nc2ccccc2n1CCCCN)C1CCCc2cccnc21` (stereo not given), the outcome in data set [1] was Active. The compound also came in with a CC50 in data set [2] of 2.9 µM. This compound also returned an IC50 in data set [3] of 144 nM.

Regarding `CN1CCN(c2cccc3nc(CN(C)[C@@H]4CCCc5cccnc54)[nH]c23)CC1`, in data set [1], the outcome was Active. In addition, the CC50 in data set [2] is 12.3 µM. The same compound showed an IC50 in data set [3] of 6.9 nM.

In the case of `CN1CCN(c2cccc3nc(CN(C)[C@H]4CCCc5cccnc54)[nH]c23)CC1`, the result in data set [1] was Active. In data set [2], the CC50 amounted to 12.5 µM. Besides, the IC50 in data set [3] was 0.6 nM.

As to `CN(C)CCCc1cccc2[nH]c(CN(C)C3CCCc4cccnc43)nc12` (stereo not given), half-maximal cytotoxicity in data set [2] (CC50) was put at 7.5 µM.

Turning to `CN1CCN(C(=O)c2cccc3nc(CN(C)C4CCCc5cccnc54)[nH]c23)CC1` (stereo not given), in data set [1], the result was Active. Further, half-maximal inhibition in data set [3] (IC50) was put at 33 nM.

In the case of `CN(Cc1nc2c(C(=O)NCCN)cccc2[nH]1)C1CCCc2cccnc21` (stereo not given), the CC50 in data set [2] was > 10 µM.

Take `CN(Cc1nc2cccc(CCCN)c2[nH]1)C1CCCc2cccnc21` (stereo not given): the result in data set [1] was Active. Besides, the IC50 in data set [3] was 24 nM.

With `CN(Cc1nc2cccc(CNCCN)c2[nH]1)C1CCCc2cccnc21` (stereo not given), the result in data set [1] was Active. The CC50 in data set [2] was > 20 µM. Moreover, in data set [3], it took 540 nM to reach half-maximal inhibition (IC50).

For `CN(Cc1nc2ccccc2n1CCCN)C1CCCc2cccnc21` (stereo not given), the outcome in data set [1] was Active. Besides, in data set [2], the CC50 was > 20 µM. In data set [3], this compound returned an IC50 of 44 nM.

Turning to `CN(C)CCCn1c(CN(C)C2CCCc3cccnc32)nc2ccccc21` (stereo not given), the outcome in data set [1] was Active. In addition, the CC50 in data set [2] came to 16.8 µM. Also, in data set [3], the midpoint of inhibition, the IC50, lay at 17 nM.

Turning to `CN(Cc1nc2ccccc2n1CCCNC(=O)C(F)(F)F)C1CCCc2cccnc21` (stereo not given), the result in data set [1] was Active. For the same compound, the CC50 in data set [2] was 10.4 µM. This compound registered an IC50 in data set [3] of 243 nM.

Take `CN(Cc1nc2cccc(CNCCc3cnc[nH]3)c2[nH]1)C1CCCc2cccnc21` (stereo not given): the result in data set [1] was Active. Inhibition in data set [3] was half-maximal at 41 nM (IC50).

In the case of `CN(Cc1nc2ccccc2n1CCCNC(=N)N)C1CCCc2cccnc21` (stereo not given), the result in data set [1] was Active. Moreover, the CC50 in data set [2] is > 20 µM. For the same compound, the IC50 in data set [3] came to 26 nM.

For the compound `CN(Cc1nc2cccc(C(=O)NCCN)c2[nH]1)C1CCCc2cccnc21` (stereo not given), in data set [1], the result was Active. This compound yielded an IC50 in data set [3] of 27 nM.

For the compound `CN(Cc1nc2cccc(CCCN3CCCCC3)c2[nH]1)C1CCCc2cccnc21` (stereo not given), the outcome in data set [1] was Active. In data set [3], this compound had an IC50 of 25 nM.

Turning to `CN(Cc1nc2c(CCCN3CCCCC3)cccc2[nH]1)C1CCCc2cccnc21` (stereo not given), in data set [2], the midpoint of cytotoxicity, the CC50, lay at 8.7 µM.

As for `CN(Cc1nc2cccc(CN3CCNCC3)c2[nH]1)C1CCCc2cccnc21` (stereo not given), in data set [1], the outcome was Active. In data set [3], this compound came in with an IC50 of 13 nM.

For `NCCCCN(Cc1nc2ccccc2[nH]1)[C@H]1CCCc2cccnc21` [MAVORIXAFOR], in data set [1], the outcome was Active. Moreover, the CC50 in data set [2] is > 10 µM. In data set [3], the IC50 was 10 nM.

For the compound `CN(Cc1nc2cccc(C(=O)NCCCCN)c2[nH]1)C1CCCc2cccnc21` (stereo not given), the result in data set [1] was Active. In data set [2], the CC50 was > 20 µM. For the same compound, the IC50 in data set [3] was determined as 396 nM.

As for `CN(Cc1nc2cccc(CCCN3CCCC3)c2[nH]1)C1CCCc2cccnc21` (stereo not given), the result in data set [1] was Active. The compound also showed an IC50 in data set [3] of 23 nM.

As for `CN(Cc1nc2ccccc2n1CCCCCN)C1CCCc2cccnc21` (stereo not given), in data set [1], the result was Active. In data set [2], this compound displayed a CC50 of 4.5 µM. The compound further gave an IC50 in data set [3] of 228 nM.

Consider `CN(Cc1nc2c(CNCCc3c[nH]cn3)cccc2[nH]1)C1CCCc2cccnc21` (stereo not given), for which the CC50 in data set [2] was > 20 µM.

Regarding `CN(Cc1nc2c(CN3CCNCC3)cccc2[nH]1)C1CCCc2cccnc21` (stereo not given), in data set [2], the CC50 was found to be 12 µM.

Compound `CN(Cc1nc2c(CCCN3CCCC3)cccc2[nH]1)C1CCCc2cccnc21` (stereo not given) registered a CC50 in data set [2] of 8.2 µM.

Consider `CN(Cc1nc2ccccc2n1CCN)C1CCCc2cccnc21` (stereo not given), for which the outcome in data set [1] was Active. In data set [2], the CC50 was > 20 µM. The IC50 in data set [3] amounted to 197 nM.

Consider `CN(C)CCCc1cccc2nc(CN(C)C3CCCc4cccnc43)[nH]c12` (stereo not given), for which the result in data set [1] was Active. Also, in data set [3], the IC50 turned out to be 22 nM.

`CN(Cc1nc2cccc(N3CCNCC3)c2[nH]1)C1CCCc2cccnc21` (stereo not given): the result in data set [1] was Active. In data set [3], this compound returned an IC50 of 6 nM.
